Experimental data: patent US20240156083A1, “CRYOBIOPRINTING FOR TISSUE FABRICATION AND STORAGE” (THE BRIGHAM AND WOMEN'S HOSPITAL, INC., priority 2022, published 2024)
Each block holds one compound with its values, some of them ahead of it.

Assays:
C2C12 cells [1] = experiment: Live/dead cell viability after 72 h cryopreservation in GelMA with DMSO and saccharides; format: cell-based, mouse; settings: C2C12 in 5% (w/v) GelMA; for most effective saccharide concentration for cell viability increase: 72 h cryopreservation, normalized to control with same DMSO concentration
Protocol: A series of cell viability experiments were conducted using different concentrations of DMSO and saccharides to find the optimized configuration of CPAs in GelMA. […] The cell-laden bioink was used to produce samples containing different concentrations of DMSO and saccharides at room temperature (RT). The cast samples were then directly transferred to −80° C. for 24 h, conventionally cryopreserved in liquid nitrogen for 72 h, crosslinked via UV exposure, and underwent live/dead assays. […] By using the fluorescence images, the cell viability ratios of C2C12 cells were determined. […] Cell viability of each group was normalized to the control group with the same DMSO concentration to choose the most functional saccharide and its optimum concentration (FIG. 3, B to D). […] Ninety-six groups of GelMA samples (four DMSO concentrations, four saccharide concentrations, and six types of saccharides) were studied to identify the optimal CPA configuration. C2C12 cells were encapsulated in the GelMA/CPAs precursor. A volume of 50 μL of the cell-laden precursor was directly cast on a freezing plate in aseptic conditions. […] On day 3, the samples were removed from cryogenic storage and directly crosslinked via UV exposure. The samples were washed in PBS to remove any excess CPAs in preparation for subsequent use. Cell viability was quantified within unthawed cell-encapsulated samples to identify the optimal combination of CPAs. Following the crosslinking and washing steps, the hydrogel samples were cultured for a definite period and then stained using calcein-AM and ethidium homodimer-1 (Thermo Fisher Scientific) per the provider's protocol. An inverted Eclipse-Ti fluorescence microscope (Nikon) was employed to image the live and dead cells in green and red channels, respectively. The ratio of live cells to the total captured cells in random regions of the samples was determined through processing the fluorescent images using ImageJ.

[2] = Ice crystal-formation imaging, fractal dimension (FD) analysis; format: physicochemical; settings: GelMA bioink, 90% of field of view frozen, versus DMSO-free control
Excerpt: One critical factor that affects cell viability during cryopreservation is the formation of ice crystals (Cheng Y, et al., Small 15, 1904290). The spicular ice crystals can damage the cell membrane, resulting in lower cell viability. […] The addition of CPAs noticeably affected the shape of ice crystals. In the control sample (without DMSO), the ice crystals were more spicular and formed faster than the other study groups. Increasing the DMSO concentration led to the formation of fine ice crystals; however, no remarkable improvement in ice-crystallization was observed when the saccharide concentration was increased, as the saccharide merely prevents osmotic damage to the cells. The fractal dimension (FD) theory, in conjunction with an image processing method, was employed to quantitatively compare the smoothness and the growth rate of the ice crystals. The FD value quantifies the geometry's irregularities. In our analysis, ice crystals' boundaries were extracted from the brightfield images and digitized. The FD value for the resulting quasi-circle geometry was then calculated using equation (1) (Chen Y, Math. Probl. Eng 2020, 7528703).
, where P and A stand for the perimeter and the area of the quasi-circle geometry, respectively. FD is an indicator of how the quasi-circle geometry deviates from a circle. […] When 90% of the field of view was frozen, the FD values were recorded and compared. […]

[3] = Splat ice recrystallization-inhibition assay; format: physicochemical; settings: GelMA, Tp −20° C., 30 min, increasing DMSO concentration
Protocol: To further confirm the effect of CPAs on inhibiting ice-recrystallization, a modified splat assay was employed. […] Smaller crystal size is an indication of enhanced ice recrystallization-inhibition (Tomczak MM, et al., Biochem. Biophys. Res. Commun 311, 1041-1046).
The splat cooling assay was performed following the previously developed protocols (Georgiou PG, et al., J. Am. Chem. Soc 143, 7449-7461). Briefly, 10 μL of samples with different DMSO concentrations was added between two glass coverslips. The coverslips were placed on the freezing plate (Tp=−20° C.) for 30 min. Images were then obtained using an optical microscope (Nikon) and processed by ImageJ (National Institutes of Health) to determine the ice crystal size in each group.

C2C12 cells [4] = experiment: Live/Dead viability in vertically cryobioprinted GelMA constructs; format: cell-based, mouse; settings: 7.5% GelMA
Excerpt: The C2C12 myoblast-laden cryobioprinted samples containing DMSO and melezitose were subjected to Live/Dead assays on Days 1, 3, and 7. The 7.5% GelMA bioinks containing different concentrations (5%, 10%, and 15%) of DMSO were initially used to gain understanding on its cryoprotectant effect. The optimum concentration of DMSO was found at 10% for maximizing cell viability in the absence of the saccharide. GelMA bioinks containing different concentrations (4%, 8%, and 12%) of melezitose in the absence of DMSO were separately used for optimizing the melezitose effect. […] Therefore, the GelMA bioink combined with 8% melezitose and 10% DMSO was determined as the optimum formulation for cell-laden vertical cryobioprinting, and used in the following cellular experiments. […]
Cell viability was assessed by staining with calcein-AM at 0.5 μL mL^−1 and ethidium homodimer-1 at 2 μL mL^−1 (Thermo Fisher Scientific). Cell viability imaging was done using an inverted Eclipse-Ti fluorescence microscope (Nikon). Cell viability was quantified by counting live and dead cells using the ImageJ software (National Institutes of Health). After loading the image, we would adjust the threshold to highlight all of the cells that need to be counted, and convert the image to a binary image. The number of live cells was then determined in the image. […]

[5] = previously reported (Tada N, et al.); cited from earlier work
[6] = cited from earlier work

- FD value of ice crystals [2]: significantly decreased
- average size of the ice crystals [3]: significantly decreased
SMILES: C[S+](C)[O-] [DMSO, Dimethylsulfoxide]
- optimum concentration of DMSO (C2C12 cells [1]; for the selected sugar types, versus DMSO-free group): 10 % (v/v)
- optimum concentration of DMSO for maximizing cell viability (C2C12 cells [4]; absence of the saccharide): 10%

SMILES: OC[C@H]1O[C@@H](O[C@H]2[C@H](O)[C@@H](O)C(O)O[C@@H]2CO)[C@H](O)[C@@H](O)[C@H]1O (stereo partly drawn) [Lactose, D-lactose]
- most effective saccharide concentration for cell viability increase (C2C12 cells [1]): 4 % (w/v)

SMILES: OC[C@H]1O[C@H](OC[C@H]2O[C@H](O[C@]3(CO)O[C@H](CO)[C@@H](O)[C@@H]3O)[C@H](O)[C@@H](O)[C@@H]2O)[C@H](O)[C@@H](O)[C@H]1O [Raffinose, D-(+) raffinose pentahydrate]
- most effective saccharide concentration for cell viability increase (C2C12 cells [1]): 4 % (w/v)
- concentration effective as CPA [5]: 10-18 % (w/v)

SMILES: OC[C@H]1O[C@@](CO)(O[C@H]2O[C@H](CO)[C@@H](O)[C@H](O)[C@H]2O)[C@@H](O[C@H]2O[C@H](CO)[C@@H](O)[C@H](O)[C@H]2O)[C@@H]1O [Melezitose, D-(+)-melezitose hydrate]
- most effective saccharide concentration for cell viability increase (C2C12 cells [1]): 12 % (w/v)
- melezitose concentration leading to highest cell viability (C2C12 cells [4]; absence of DMSO): 8%
- Solubility at 20° C. [6]: 781 mg/mL
